# According to patent publication US10329295B2, “Pyrrolotriazine inhibitors of IRAK4 activity” (MERCK SHARP & DOHME CORP., priority 2015, dated 2019):
# Where a name gives a salt, the structure may show the parent alone.
# Biological target: GST tagged IRAK4 (Homo sapiens (Human), UniProt Q9NWZ3)
# Experiment: IRAK4 Kinase Assay (IMAP fluorescence polarization)
# Assay type: biochemical
# Conditions: 0.5 nM GST tagged IRAK4, 100 μM ATP, 30 minutes at 25° C.
# Procedure, shortened: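 Reactions contained 0.5 nM GST-IRAK4, 100 nM fluorescent peptide substrate and 100 μM ATP in 10 mM Tris-HCl pH 7.2 with 1 mM MgCl2, and were started with ATP. After 30 minutes at 25° C they were stopped with IMAP reagent. Substrate phosphorylation was read as the change in fluorescence polarization.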
# Chain of GST tagged IRAK4 (Q9NWZ3 whole entry): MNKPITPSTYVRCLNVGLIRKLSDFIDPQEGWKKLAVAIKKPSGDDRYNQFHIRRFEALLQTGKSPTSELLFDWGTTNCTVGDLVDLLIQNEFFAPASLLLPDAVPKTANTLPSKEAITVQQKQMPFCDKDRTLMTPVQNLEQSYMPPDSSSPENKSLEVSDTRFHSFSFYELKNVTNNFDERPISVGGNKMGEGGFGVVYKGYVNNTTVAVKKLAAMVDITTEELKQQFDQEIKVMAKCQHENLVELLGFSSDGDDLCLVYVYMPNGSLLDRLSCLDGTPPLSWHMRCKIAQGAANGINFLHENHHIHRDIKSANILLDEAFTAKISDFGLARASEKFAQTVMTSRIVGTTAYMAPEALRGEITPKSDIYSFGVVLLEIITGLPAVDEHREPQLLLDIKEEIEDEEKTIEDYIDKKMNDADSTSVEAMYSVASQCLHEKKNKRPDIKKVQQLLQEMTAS
row,Compound,IC50 [µM]
1,"N[C@@H]1[C@H](Nc2ncc3ccc(C(=O)Nc4ccsc4C(F)(F)F)n3n2)CCCC1(F)F [Example 95, 2-{[(1R,2R)-2-amino-3,3-difluorocyclohexyl]amino}-N-[2-(trifluoromethyl)thiophen-3-yl]pyrrolo[2,1-f][1,2,4]triazine-7-carboxamide trifluoroacetate]",4.7
2,"N#Cc1cscc1NC(=O)c1ccc2cnc(N3CC4CCC3CN4)nn12 (centres unmarked) [Example 36, N-(4-cyanothiophen-3-yl)-2-(2,5-diazabicyclo[2.2.2]oct-2-yl)pyrrolo[2,1-f][1,2,4]triazine-7-carboxamide trifluoroacetate]",0.426
3,"Cn1cc(NC(=O)c2ccc3cnc(NC4CCCCNC4)nn23)c(C(F)(F)F)n1 (centres unmarked) [Example 10, 2-(azepan-3-ylamino)-N-[1-methyl-3-(trifluoromethyl)-1H-pyrazol-4-yl]pyrrolo[2,1-f][1,2,4]triazine-7-carboxamide trifluoroacetate]",0.004
4,"Cn1cc(NC(=O)c2ccc3cnc(N[C@@H]4CNC[C@H](F)C4)nn23)c(C(F)(F)F)n1 [Example 154, 2-{[(3S,5R)-5-fluoropiperidin-3-yl]amino}-N-[1-methyl-3-(trifluoromethyl)-1H-pyrazol-4-yl]pyrrolo[2,1-f][1,2,4]triazine-7-carboxamide]",0.053
5,"O=C(Nc1ccccc1Cl)c1ccc2cnc(N3C[C@@H]4CC[C@H]3CN4)nn12 (single isomer, unassigned) [Example 65, N-(2-chlorophenyl)-2-[(1S,4S)- or (1R,4R)-2,5-diazabicyclo[2.2.2]oct-2-yl]pyrrolo[2,1-f][1,2,4]triazine-7-carboxamide trifluoroacetate]",2.06
6,"Cn1cc(NC(=O)c2ccc3cnc(N4CC5CCC(C4)N5)nn23)c(C#N)n1 [Example 110, N-(3-cyano-1-methyl-1H-pyrazol-4-yl)-2-(3,8-diazabicyclo[3.2.1]oct-3-yl)pyrrolo[2,1-f][1,2,4]triazine-7-carboxamide trifluoroacetate]",0.117
7,"Cn1cc(NC(=O)c2ccc3cnc(N[C@@H]4CCCNC4)nn23)c(C(F)F)n1 [Example 16, N-[3-(difluoromethyl)-1-methyl-1H-pyrazol-4-yl]-2-[(3R)-piperidin-3-ylamino]pyrrolo[2,1-f][1,2,4]triazine-7-carboxamide trifluoroacetate]",0.001
8,"N#Cc1sccc1NC(=O)c1ccc2cnc(N3CCCNCC3)nn12 [Example 43, N-(2-cyanothiophen-3-yl)-2-(1,4-diazepan-1-yl)pyrrolo[2,1-f][1,2,4]triazine-7-carboxamide trifluoroacetate]",1.04
9,"N#Cc1ccccc1NC(=O)c1ccc2cnc(N[C@@H]3CCCC(F)(F)[C@@H]3N)nn12 [Example 136, 2-{[(1R,2R)-2-amino-3,3-difluorocyclohexyl]amino}-N-(2-cyanophenyl)pyrrolo[2,1-f][1,2,4]triazine-7-carboxamide trifluoroacetate]",0.86
10,"Cn1cc(NC(=O)c2ccc3cnc(N4CCC[C@@H](N)C4)nn23)c(C#N)n1 [Example 125, 2-[(3R)-3-aminopiperidin-1-yl]-N-(3-cyano-1-methyl-1H-pyrazol-4-yl)pyrrolo[2,1-f][1,2,4]triazine-7-carboxamide trifluoroacetate]",0.001
11,"Cn1cc(NC(=O)c2ccc3cnc(N[C@H]4CC(F)(F)CC[C@H]4N)nn23)c(C(F)(F)F)n1 (single isomer, unassigned) [Example 127, 2-{[(1S,2R)- or (1R,2S)-2-amino-5,5-difluorocyclohexyl]amino}-N-[1-methyl-3-(trifluoromethyl)-1H-pyrazol-4-yl]pyrrolo[2,1-f][1,2,4]triazine-7-carboxamide trifluoroacetate]",0.017
12,"Cn1cc(NC(=O)c2ccc3cnc(N4C5CCC4CNC5)nn23)c(C(F)(F)F)n1 [Example 96, 2-(3,8-diazabicyclo[3.2.1]oct-8-yl)-N-[1-methyl-3-(trifluoromethyl)-1H-pyrazol-4-yl]pyrrolo[2,1-f][1,2,4]triazine-7-carboxamide trifluoroacetate]",0.005
13,"Cn1cc(NC(=O)c2ccc3cnc(N4CCC[C@@H](N)C4)nn23)c(C(F)(F)F)n1 [Example 7, 2-[(3R)-3-aminopiperidin-1-yl]-N-[1-methyl-3-(trifluoromethyl)-1H-pyrazol-4-yl]pyrrolo[2,1-f][1,2,4]triazine-7-carboxamide trifluoroacetate]",0.0009
14,"N#Cc1ccccc1NC(=O)c1ccc2cnc(N3CCC[C@@H](N)C3)nn12 [Example 51, 2-[(3R)-3-aminopiperidin-1-yl]-N-(2-cyanophenyl)pyrrolo[2,1-f][1,2,4]triazine-7-carboxamide trifluoroacetate]",0.157
15,"N#Cc1ccccc1NC(=O)c1ccc2cnc(N3C[C@@H]4CC[C@H]3CN4)nn12 (single isomer, unassigned) [Example 74, N-(2-cyanophenyl)-2-[(1S,4S)- or (1R,4R)-2,5-diazabicyclo[2.2.2]oct-2-yl]pyrrolo[2,1-f][1,2,4]triazine-7-carboxamide trifluoroacetate]",0.85
16,"O=C(Nc1ccsc1Cl)c1ccc2cnc(N3C[C@@H]4CC[C@H]3CN4)nn12 (single isomer, unassigned) [Example 53, N-(2-chlorothiophen-3-yl)-2-[(1S,4S)- or (1R,4R)-2,5-diazabicyclo[2.2.2]oct-2-yl]pyrrolo[2,1-f][1,2,4]triazine-7-carboxamide trifluoroacetate]",1.64
17,"Cn1cc(NC(=O)c2ccc3cnc(N[C@@H]4CCCC(F)(F)[C@@H]4N)nn23)c(C(F)(F)F)n1 [Example 8, 2-{[(1R,2R)-2-amino-3,3-difluorocyclohexyl]amino}-N-[1-methyl-3-(trifluoromethyl)-1H-pyrazol-4-yl]pyrrolo[2,1-f][1,2,4]triazine-7-carboxamide trifluoroacetate]",0.276
18,"Cn1cc(NC(=O)c2ccc3cnc(N4CC5CCC(C4)N5)nn23)c(C(F)(F)F)n1 [Example 82, 2-(3,8-diazabicyclo[3.2.1]oct-3-yl)-N-[1-methyl-3-(trifluoromethyl)-1H-pyrazol-4-yl]pyrrolo[2,1-f][1,2,4]triazine-7-carboxamide trifluoroacetate]",0.032
19,"Cn1cc(NC(=O)c2ccc3cnc(N4C[C@@H](N)C[C@@H](F)C4)nn23)c(C(F)F)n1 [Example 151, 2-[(3S,5R)-3-amino-5-fluoropiperidin-1-yl]-N-[3-(difluoromethyl)-1-methyl-1H-pyrazol-4-yl]pyrrolo[2,1-f][1,2,4]triazine-7-carboxamide formate]",0.0008

# Continued by falling IC50, values first:
row,IC50 [µM],Compound
1,10,"O=C(Nc1ccccc1C(F)F)c1ccc2cnc(N3C[C@@H]4CC[C@H]3CN4)nn12 (single isomer, unassigned) [Example 61, 2-[(1S,4S)- or (1R,4R)-2,5-diazabicyclo[2.2.2]oct-2-yl]-N-[2-(difluoromethyl)phenyl]-pyrrolo[2,1-f][1,2,4]triazine-7-carboxamide trifluoroacetate]"
2,1.59,"N#Cc1cscc1NC(=O)c1ccc2cnc(N[C@@H]3CCCC[C@@H]3O)nn12 [Example 142, N-(4-cyanothiophen-3-yl)-2-{[(1R,2S)-2-hydroxycyclohexyl]amino}-pyrrolo[2,1-f][1,2,4]triazine-7-carboxamide trifluoroacetate]"
3,0.396,"N#Cc1sccc1NC(=O)c1ccc2cnc(N[C@@H]3CCCC[C@@H]3O)nn12 [Example 147, N-(2-cyanothiophen-3-yl)-2-{[(1R,2S)-2-hydroxycyclohexyl]amino}-pyrrolo[2,1-f][1,2,4]triazine-7-carboxamide]"
4,0.392,"N[C@H]1CCCC[C@H]1Nc1ncc2ccc(C(=O)Nc3ccccc3C(F)(F)F)n2n1 [Example 27, 2-{[(1R,2S)-2-aminocyclohexyl]amino}-N-[2-(trifluoromethyl)phenyl]-pyrrolo[2,1-f][1,2,4]triazine-7-carboxamide trifluoroacetate]"
5,0.365,"N#Cc1cscc1NC(=O)c1ccc2cnc(N3CCCNCC3)nn12 [Example 12, N-(4-cyanothiophen-3-yl)-2-(1,4-diazepan-1-yl)pyrrolo[2,1-f][1,2,4]triazine-7-carboxamide trifluoroacetate]"
6,0.088,"N[C@H]1CCCC[C@H]1Nc1ncc2ccc(C(=O)Nc3ccccc3C(F)F)n2n1 [Example 56, 2-{[(1R,2S)-2-aminocyclohexyl]amino}-N-[2-(difluoromethyl)phenyl]-pyrrolo[2,1-f][1,2,4]triazine-7-carboxamide trifluoroacetate]"
7,0.072,"Cn1cc(NC(=O)c2ccc3cnc(N4C[C@@H]5CC[C@H]4CN5)nn23)c(C#N)n1 (single isomer, unassigned) [Example 46, N-(3-cyano-1-methyl-1H-pyrazol-4-yl)-2-[(1S,4S)- or (1R,4R)-2,5-diazabicyclo[2.2.2]oct-2-yl]pyrrolo[2,1-f][1,2,4]triazine-7-carboxamide trifluoroacetate]"
8,0.046,"Cn1cc(NC(=O)c2ccc3cnc(N[C@H]4CCC(F)(F)C[C@H]4N)nn23)c(C(F)(F)F)n1 (single isomer, unassigned) [Example 128, 2-{[(1S,2R)- or (1R,2S)-2-amino-4,4-difluorocyclohexyl]amino}-N-[1-methyl-3-(trifluoromethyl)-1H-pyrazol-4-yl]pyrrolo[2,1-f][1,2,4]triazine-7-carboxamide trifluoroacetate]"
9,0.028,"Cn1cc(NC(=O)c2ccc3cnc(N4C[C@H]5CN[C@H](C5)C4)nn23)c(C(F)F)n1 (single isomer, unassigned) [Example 104, 2-[(1S,5S)- or (1R,5R)-3,6-diazabicyclo[3.2.1]oct-3-yl]-N-[3-(difluoromethyl)-1-methyl-1H-pyrazol-4-yl]pyrrolo[2,1-f][1,2,4]triazine-7-carboxamide]"
10,0.0005,"Cn1cc(NC(=O)c2ccc3cnc(N4CCC[C@@H](N)C4)nn23)c(C(F)F)n1 [Example 18, 2-[(3R)-3-aminopiperidin-1-yl]-N-[3-(difluoromethyl)-1-methyl-1H-pyrazol-4-yl]pyrrolo[2,1-f][1,2,4]triazine-7-carboxamide trifluoroacetate]"
